Data reported in ChEMBL document CHEMBL1131792, “Structure-based design of a non-peptidic antagonist of the SH2 domain of GRB2” (Bioorg Med Chem Lett, 1999).

Columns and labels:
[1] = target: T1, Growth factor receptor-bound protein 2 (Homo sapiens, UniProt P62993); assay: Inhibition of Grb2 SH2 domain binding to phospho-EGF receptor intracellular C-terminal domain at 5 mM
Target sequence in this assay (P62993 whole entry, looked up, the tested form may be a part): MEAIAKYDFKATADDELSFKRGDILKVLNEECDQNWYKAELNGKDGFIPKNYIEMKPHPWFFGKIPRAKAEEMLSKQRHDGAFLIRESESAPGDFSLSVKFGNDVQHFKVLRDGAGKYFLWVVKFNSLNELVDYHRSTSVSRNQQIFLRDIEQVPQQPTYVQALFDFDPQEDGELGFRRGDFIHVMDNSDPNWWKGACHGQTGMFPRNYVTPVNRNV

[2] = target: T1, Growth factor receptor-bound protein 2; assay: Inhibition of Grb2 SH2 domain binding to phospho-EGF receptor intracellular C-terminal domain
Target sequence in this assay (P62993 whole entry, the tested form may be a part): as the sequence (P62993 whole entry, looked up, the tested form may be a part) above

| Compound | inhibition [1] | IC50 [2] |
| --- | --- | --- |
| O=P(O)(O)Oc1ccccc1 | 55% | – |
| Cc1sc(-c2nccc(N)n2)nc1-c1ccc(OP(=O)(O)O)cc1 | – | 25.9 µM |
| Nc1ccnc(NCCc2ccc(OP(=O)(O)O)cc2)n1 | – | > 200 µM |
